B1: E-selectin: Human recombinant E-selectin, cell adhesion molecule used to coat capture surface (R&D Systems ADP1-050) (protein, UniProt P16581 22-610, looked up)
E-selectin: WSYNTSTEAMTYDEASAYCQQRYTHLVAIQNKEEIEYLNSILSYSPSYYWIGIRKVNNVWVWVGTQKPLTEEAKNWAPGEPNNRQKDEDCVEIYIKREKDVGMWNDERCSKKKLALCYTAACTNTSCSGHGECVETINNYTCKCDPGFSGLKCEQIVNCTALESPEHGSLVCSHPLGNFSYNSSCSISCDRGYLPSSMETMQCMSSGEWSAPIPACNVVECDAVTNPANGFVECFQNPGSFPWNTTCTFDCEEGFELMGAQSLQCTSSGNWDNEKPTCKAVTCRAVRQPQNGSVRCSHSPAGEFTFKSSCNFTCEEGFMLQGPAQVECTTQGQWTQQIPVCEAFQCTALSNPERGYMNCLPSASGSFRYGSSCEFSCEQGFVLKGSKRLQCGPTGEWDNEKPTCEAVRCDAVHQPPKGLVRCAHSPIGEFTYKSSCAFSCEEGFELHGSTQLECTSQGQWTEEVPSCQVVKCSSLAVPGKINMSCSGEPVFGTVCKFACPEGWTLNGSAARTCGATGHWSGLLPTCEAPTESNIPLVAGLSAAGLSLLTLAPFLLWLRKCLRKAKKFVPASSCQSLESDGSYQKPSYIL
B2: P-selectin: Human recombinant P-selectin, cell adhesion molecule used to coat capture surface (R&D Systems ADP3-050) (protein, UniProt P16109 42-830, looked up)
P-selectin: WTYHYSTKAYSWNISRKYCQNRYTDLVAIQNKNEIDYLNKVLPYYSSYYWIGIRKNNKTWTWVGTKKALTNEAENWADNEPNNKRNNEDCVEIYIKSPSAPGKWNDEHCLKKKHALCYTASCQDMSCSKQGECLETIGNYTCSCYPGFYGPECEYVRECGELELPQHVLMNCSHPLGNFSFNSQCSFHCTDGYQVNGPSKLECLASGIWTNKPPQCLAAQCPPLKIPERGNMTCLHSAKAFQHQSSCSFSCEEGFALVGPEVVQCTASGVWTAPAPVCKAVQCQHLEAPSEGTMDCVHPLTAFAYGSSCKFECQPGYRVRGLDMLRCIDSGHWSAPLPTCEAISCEPLESPVHGSMDCSPSLRAFQYDTNCSFRCAEGFMLRGADIVRCDNLGQWTAPAPVCQALQCQDLPVPNEARVNCSHPFGAFRYQSVCSFTCNEGLLLVGASVLQCLATGNWNSVPPECQAIPCTPLLSPQNGTMTCVQPLGSSSYKSTCQFICDEGYSLSGPERLDCTRSGRWTDSPPMCEAIKCPELFAPEQGSLDCSDTRGEFNVGSTCHFSCDNGFKLEGPNNVECTTSGRWSATPPTCKGIASLPTPGVQCPALTTPGQGTMYCRHHPGTFGFNTTCYFGCNAGFTLIGDSTLSCRPSGQWTAVTPACRAVKCSELHVNKPIAMNCSNLWGNFSYGSICSFHCLEGQLLNGSAQTACQENGHWSTTVPTCQAGPLTIQEALTYFGGAVASTIGLIMGGTLLALLRKRFRQKDDGKCPLNPHSHLGTYGVFTNAAFDPSP

Tests used:
Format in all cases: cell-based, human
neutrophils [1] = assay: Neutrophil migration assay in chemoattractant gradients (switching gradient device); settings: for average displacement in the direction of the gradient: 20 nM/450 μm fMLP or 10 nM/450 μm IL-8 gradient; for directional bias of migration profile (comparison): comparison between substrates / between chemoattractants; for Random motility coefficient (μ): initial 10 minutes of migration
Description: The gradient generating device used to study cell migration consists of two inlets, one outlet, and a cell loading port. In a similar manner as explained above, the device was primed after functionalizing the channel surface with adhesion molecules. Two syringes were prepared, one with only buffer containing 0.2% HSA while the other also containing the appropriate concentration of chemokine. Two chemoattractants, either recombinant human interleukin-8 (IL8, Catalog #208-IL, R&D Systems inc.) or N-formyl-methionyl-leucyl-phenylalanine (fMLP, Part # F3506, Sigma-Aldrich) were employed at 10 nM and 20 nM concentrations. For consistency, the two syringes were connected to the device such that chemokine gradient in the cell capture and migration chambers was always in the same orientation, from top (100%) to bottom (0%). After the device was primed, inlet ports were clamped, and the blood sample was loaded through the cell loading port as described in the following section.
A 1.25 mm lancet (Part #366579, Becton Dickinson) was used to prick a finger of a subject, and 10 μL whole blood was drawn with a pipette. Before withdrawing the blood, 70 μL of HBSS mixed with sodium heparin (Part #367871, Becton Dickinson) was injected into the open end of a loading needle using a pipette. The blood in the pipette was then directly mixed with the heparin solution inside the needle. A slight pressure was gradually applied to the open end of the needle using an index finger to push the blood sample through the tubing until a small drop of fluid appeared on the other end of the tubing. To avoid entrapment of air bubbles while connecting the tubing to the PDMS device, a drop of HBSS was always present in excess at the connecting ports of the device. The loose end of the sample tubing was held with forceps and carefully inserted in the PDMS port. Once a sealed connection was established, pressure was again applied to the loading needle to push samples through the cell capture and migration chamber. The inlet and outlet tubings were then clamped using binder clips for 5-10 minutes allowing cells to interact and bind with the glycoprotein molecules.
For the neutrophil capture characterization experiments, images for 7-10 sections (each 750 μm long, FIG. 2B) were acquired at 2 s interval using time lapse microscopy and at least 10 frames were captured. This was done to make sure that only adherent neutrophils were counted. An inverted Olympus microscope (Model # CKX41) and a CMOS color camera (Pixelink PLA742) were used to capture time lapse images in phase contrast mode. A 10× ocular and 10× objective magnification were used. The neutrophils captured in the chambers were counted manually in 7-10 distinct areas for each concentration. The average number of captured cells was calculated from three repeated experiments for each concentration and CAM. Captured time lapse images were converted to 8 bit and individual cells were tracked using Metamorph imaging software (Ver 4.1, Universal Imaging Corporation). Elapsed time and migration distance from the origin in the Y direction were derived for each cell and average displacements were calculated for the entire cell population in consideration. Migration curves representing the average distance traveled in the direction of increasing chemokine concentration against time were plotted and compared. It is notable that the slope of gradient along the flow path in the cell chamber gradually changes depending on the flow rates and the diffusivities of chemoattractants. Therefore, to maintain consistency, only the first upstream quarter of the cell chamber was considered for microscopic observation where the variations in gradient profile are minimal. […]

neutrophils [2] = assay: Further migration analysis on P-selectin functionalized migration chamber with IL-8 gradient
Description: The surface of the migration chamber of a device as described herein was functionalized with P-selectin by exposure to a 10 nM solution of P-selectin for 10 minutes, followed by Hanks buffer wash for 5 minutes. Capillary blood was collected from the tip of a finger using a lancet. A volume of 10 μL (equivalent of a small droplet) was collected in 10 μL heparin 2×, mixed well by repeated pipetting, and introduced into the device. After filling the main channel, a slow flow rate of the blood was established by raising the inlet tube at 4-5 cm above the level of the device.
After 5 minutes, the blood inlet was clamped, and buffer was introduced from one of the gradient generators that had Hanks buffer solution at both inlets. After 1 minute of washing all the red blood cells through the device, only leukocytes were left on the P selectin coated surface of the migration chamber. Based on observed morphological characteristics, most of the remaining captured cells appeared to be neutrophils. After 5-10 minutes of washing using a buffer, a gradient of IL-8 (from 0 to 12 nM over 400 μm distance) was rapidly established using the second gradient chamber. […]
The displacement of neutrophils in the direction of the gradient was also measured as a function of time.

neutrophils [3] = assay: Neutrophil capture from whole blood on CAM-coated microfluidic channels
Excerpt: Three different adhesion molecules (P-selectin, E-selectin and fibronectin) were used to capture primary neutrophils from whole blood in the microfluidic channels. These substrates were chosen because of their significant role in neutrophil trafficking in vivo. To characterize the neutrophil capture efficiency, the cell capture chambers were coated with the adhesion molecules by flowing through solutions of six different concentrations of each adhesion molecule (concentrations shown in Table 1). Solutions were prepared by diluting the stock solution in sterile water or phosphate buffered saline (PBS) as advised by the vendors. These dilutions were loaded in the six cell capture chambers of the device and incubated for 1 h at room temperature. After one hour, P-selectin was aspirated and the flow chambers perfused with 2% HSA (Human Serum Albumin, Sigma-Aldrich Catalog # A5843) in Hank's buffer saline solution (HBSS, Sigma-Aldrich Catalog # H9269) to block non-specific binding sites and incubated for at least 15 minutes.
The PDMS device used to characterize cell capture consists of six distinct parallel channels each having an inlet and an outlet port (FIG. 2A). The channel dimensions of each segment of the capture device are 750×450×80 μm (L×W×H). The length of each segment was chosen such that it will conveniently fit in the field of view at 10× ocular and 10× objective magnification. 10 μL whole blood was mixed with 70 μL it heparinized HBSS solution and loaded in the cell chamber. Six 1 mL syringes (Part #309602, Becton, Dickinson and Company, Franklin Lakes, N.J.) were filled with HBSS containing 0.2% HSA. Most of the air trapped in the dead volume of the syringe was eliminated by tapping the inverted syringes. Syringes were then connected to tygon tubing approximately 10 to 12 inches long (Part # TGY-010-C, Small parts Inc.) through the needles (Part # NE-301PLC, Small parts Inc.). The syringes were placed on the syringe pump rack (PHD 2000, Harvard Apparatus, Holliston, Mass.), and the loose ends of the tubing were connected to the inlets of the device properly secured on the microscope stage. Smaller fragments of tubing were connected to the outlet ports. The pump was turned on at the rate of 4-5 μL/min, and the outlet tubings were clamped once the channels were filled with fluid, while leaving the pump running. This priming step was necessary to eliminate any trapped air pockets by continuing the inflow that pressurizes the air bubbles to diffuse through the porous PDMS matrix. Blood sample could be loaded as soon as all the air pockets were eliminated.
A 1.25 mm lancet (Part #366579, Becton Dickinson) was used to prick a finger of a subject, and 10 μL whole blood was drawn with a pipette. […]

neutrophils [4] = assay: Neutrophil capture on CAM-coated channels primed with 20 nM fMLP; settings: CAM coated channel primed with 20 nM fMLP
Description: To identify whether the chemoattractant exposure has any significant effect on neutrophil capture from whole blood, the CAM coated channel was primed with 20 nM fMLP, and the cells were captured in a similar manner as described above. The effects of chemotactic priming of channels appeared significant from the statistical analysis (P<<0.05).

[5] = 50 μg/mL E-selectin surface, first 30 minutes
[6] = 200 μg/mL fibronectin surface, 30 minutes
[7] = substrate E-selectin, mean of about 15 cells
[8] = substrate Fibronectin, less than 10 cells
[9] = substrate P-selectin, mean of about 15 cells

| Molecule | average displacement in the direction of the gradient (neutrophils [1]; [5]) | average displacement in the direction of the gradient (neutrophils [1]; [6]) | directional bias of migration profile (comparison) (neutrophils [1]) | Random motility coefficient (μ) (neutrophils [1]; [7]) | Random motility coefficient (μ) (neutrophils [1]; [8]) | Random motility coefficient (μ) (neutrophils [1]; [9]) | cells captured on primed vs. unprimed surface (neutrophils [4]) | also measured |
| --- | --- | --- | --- | --- | --- | --- | --- | --- |
| CSCC[C@H](NC=O)C(=O)N[C@@H](CC(C)C)C(=O)N[C@@H](Cc1ccccc1)C(=O)O [fMLP, N-formyl-methionyl-leucyl-phenylalanine, reference compound] | 50 μm | about 65 μm | greater directional bias than IL8 | 23.64 μm^2/minute | 17.7 μm^2/minute | 8.07 μm^2/minute |  |  |
| IL-8: recombinant human interleukin-8, chemoattractant (Catalog #208-IL, R&D Systems) | 70 μm | 35 μm |  | 33.92 μm^2/minute | 27.01 μm^2/minute | 14.89 μm^2/minute |  | neutrophil migration response to gradient (neutrophils [2]; IL-8 gradient from 0 to 12 nM over 400 μm, P-selectin coated surface): sustained migration in the direction of the gradient |
| fibronectin |  |  |  |  |  |  | five times more cells | cells captured (neutrophils [3]; coated surfaces at 200 μg/mL concentration of priming solution, whole blood): 3-4 cells/mm^2 |
| B1 |  |  |  |  |  |  | approximately twice as many cells | maximum capture efficiency (neutrophils [3]; surface coated with 50 μg/mL solution, whole blood): ~15 cells/mm^2 |
| B2 |  |  | more directionally biased and persistent |  |  |  | not significant | neutrophil activation by binding to capture surface (morphology) (neutrophils [3]; before chemokine introduced, P-selectin functionalized surface (FIGS. 7A-7C)): did not induce neutrophil activation; maximum capture efficiency (neutrophils [3]; surface coated with 25 μg/mL solution, whole blood): approximately 35 cells/mm^2; chemokinesis of neutrophils on functionalized substrate (neutrophils [2]; in the absence of IL-8): No significant chemokinesis |
